From US20230390277A1, “METHODS TO SENSITIZE TUMORS TO TREATMENT BY IMMUNOTHERAPY” (Ohio State Innovation Foundation, priority 2020, published 2023)

What was measured:
[1] = tested on: pODD-Luc reporter in MP2 pODD cells; assay: in vitro luciferase assay, MP2 pODD cells; assay type: cell-based, human; conditions: 16 hours, 1 mM
Protocol: (§1) PCR-amplified cassette was then digested with Asci and Pmel restriction enzymes and ligated into pLenti-C-Myc-DDK-IRES-Puro. Correct orientation and sequence was confirmed by Sanger DNA sequencing. HeLa pODD and MIP2 pODD transfectants were selected with 2 μg/ml Puromycin for two weeks. Stable MP2 CMV Cells were generated by lentiviral transduction of MP2 cells with pLenti-CMV-Puro-Luc lentiviral vector (Addgene#17477) with 2 Puromycin selection for two weeks. Cells were grown in Dulbecco's Modified Eagle's Medium (DMEM) containing 25 mM D-glucose, 4 mM glutamine and 44 mM sodium bicarbonate in 5% CO2, if not stated otherwise. The cells were exposed to hypoxia (1% O2) in H35 Hypoxic Workstation (Hypoxygen) with 5% CO2 at 37° C. In some experiments, we used a hypoxia mimetic dimethyloxalyglycine (DMOG) as described. Cell counts and cellular proliferation were established using hemocytometer to determine the cell number and trypan blue exclusion assay to establish the fraction of viable/dead cells. All human cell lines have been authenticated using STR profiling within the past 3 years. All experiments were performed with mycoplasma-free cells.
In vitro luciferase Assay. Proteins were extracted using Luciferase Assay Lysis Buffer (125 mM Tris-HCl, pH 7.5, 11.0 mM DTT, 10 mM EGTA, 50% Glycerol, 5% Triton X-100) and 200 μl/sample were transferred to 96-well plate and D-luciferin was added to the final concentration of 150 μg/ml immediately before the assay. Bioluminescence was measured on a Synergy H1 Hybrid Plate Reader (Biotek) after a 10-minute incubation period (10 slsample, Gain=150) in triplicates.

MP2 CMV cells = assay: in vitro luciferase assay, MP2 CMV control cells; assay type: cell-based, human; conditions: 1 mM DMOG, constitutive CMV reporter
Protocol: as §1
In vitro luciferase Assay. […] Bioluminescence was measured on a Synergy H1 Hybrid Plate Reader (Biotek) after a 10-minute incubation period (10 slsample, Gain=150) in triplicates.

MP2 pODD flank tumors = assay: in vivo bioluminescent imaging, heterotopic MP2 pODD flank tumors; design: species or system mouse
Protocol: In vivo bioluminescent imaging. […] For heterotopic flank tumor experiments, 1×10^6 HeLa pODD or 5×10^6 MP2 cells were injected subcutaneously (s.c.) into the flanks of 6-wk-old female (HeLa pODD) or male (N1P2 pODD or MP2 CMV) immunocompromised athymic nu/nu mice. Replicate experiments with groups of 4-6 mice were used for statistical reproducibility. Caliper measurements of opposing diameters were used to calculate the tumor volumes using the modified ellipsoidal formula: tumor volume=(length×width^2)[23]. Upon reaching 100 mm^3, the animals were given 100 mg/kg D-luciferin intraperitoneally and bioluminescence images were captured using IVIS In Vivo Imaging System Lumina II (Perkin Elmer Inc). […] Bioluminescent data were analyzed using living Image software (Perkin Elmer Inc) and calculated as photon flux/sec. Obtained individual photon flux peak values were then normalized to baseline for each mouse and averaged per group. Gas inhalation experiments were performed by switching medical air and carbogen gas sources for the IVIS anesthesia vaporizer. Initial baselines were established in medical air under anesthesia, then the mice were subjected to 30 minutes of either medical air or carbogen rebreathing in an air-tight chamber while awake. After 30 minutes, photon flux was established in respective gas sources as a carrier for isoflurane anesthesia.

PDE10A = molecular target: T1, PDE10A (Homo sapiens, UniProt Q9Y233); assay: PDE10A purified enzyme activity assay (BPS Bioscience); assay type: biochemical; conditions: dose response analysis
T1 construct: purchased BPS Bioscience
T1 sequence (Q9Y233 whole entry): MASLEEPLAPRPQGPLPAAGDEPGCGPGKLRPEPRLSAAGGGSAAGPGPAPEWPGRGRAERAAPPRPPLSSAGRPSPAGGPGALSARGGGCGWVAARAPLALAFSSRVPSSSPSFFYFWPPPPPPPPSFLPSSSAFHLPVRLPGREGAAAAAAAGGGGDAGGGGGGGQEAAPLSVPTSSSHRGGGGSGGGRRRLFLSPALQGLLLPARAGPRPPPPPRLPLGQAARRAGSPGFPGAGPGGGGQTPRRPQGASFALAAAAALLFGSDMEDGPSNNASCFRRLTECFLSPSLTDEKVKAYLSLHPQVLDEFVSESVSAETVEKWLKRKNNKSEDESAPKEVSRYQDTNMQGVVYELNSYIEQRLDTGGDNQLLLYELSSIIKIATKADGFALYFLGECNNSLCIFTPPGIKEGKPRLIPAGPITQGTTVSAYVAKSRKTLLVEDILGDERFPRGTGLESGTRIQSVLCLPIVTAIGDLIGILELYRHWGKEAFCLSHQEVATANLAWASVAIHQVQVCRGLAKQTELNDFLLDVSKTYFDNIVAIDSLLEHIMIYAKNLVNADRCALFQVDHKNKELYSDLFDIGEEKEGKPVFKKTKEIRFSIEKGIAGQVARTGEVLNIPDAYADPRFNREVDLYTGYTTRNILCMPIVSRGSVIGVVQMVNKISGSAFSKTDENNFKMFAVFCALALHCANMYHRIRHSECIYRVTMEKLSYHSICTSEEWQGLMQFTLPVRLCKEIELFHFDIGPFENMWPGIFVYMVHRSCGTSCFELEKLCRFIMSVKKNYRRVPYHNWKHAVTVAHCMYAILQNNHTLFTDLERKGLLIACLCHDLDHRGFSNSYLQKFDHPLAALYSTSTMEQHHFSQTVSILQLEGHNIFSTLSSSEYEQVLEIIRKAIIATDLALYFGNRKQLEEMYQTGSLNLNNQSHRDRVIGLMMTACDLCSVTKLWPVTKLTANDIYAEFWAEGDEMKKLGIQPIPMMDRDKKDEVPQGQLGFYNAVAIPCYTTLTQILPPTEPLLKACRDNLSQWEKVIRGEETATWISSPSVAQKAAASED
Excerpt: We therefore defined the structure activity relationship (SAR) of PPV relative to two assays: inhibition of cellular OCR by Seahorse XE assay, and inhibition of PDE10A by purified enzyme activity (PDE10A activity assay, BPS Bioscience). […] Because the top portion of PPV was a planar structure like that of rotenone, we decided to focus our attention on the lower portion of the molecule.

MC38 colorectal tumor = assay: MC38 colorectal tumors in C57Bl6 mice, sensitization to anti PD-1; assay type: in vivo, mouse
Protocol: MC38 tumors grown in C57B16 mice were treated as indicated with irrelevant antibody, anti PD-1, or anti PD-1 after PPV or SMV32 n=5-7, P=<0.05* for PPV and <0.01** for SMV32.
Papaverine and SMV32 enhance PD-1 checkpoint blockade immunotherapy for cancer treatment. Because of the literature describing the immunomodulatory effects of hypoxia^(24-27), we hypothesized that reducing hypoxia may also enhance tumor lymphocyte infiltration and function and improve immune-mediated tumor cell killing. As those of skill in the art recognize, there is a large body of literature and research on increase the supply side of the hypoxia equation, but it has been heretofore an unexpected approach to decrease the tri demand side of the hypoxia equation. We tested tumors grown from the relatively immune-sensitive syngeneic MC38 colorectal tumor line in immuno-competent C5713116 mice. […] In a second cohort, we implanted 1×10^6 cells/mouse and after 5 days, when tumors were 50-100 mm^3, they were randomized into four groups. Therapy was started with either control rat IgG antibody, or a suboptimal dose of anti PD-1(CD279) blocking monoclonal antibody (BioXCell, clone 29F.1A12, 100 μg ip every 3 days).

CMT167 flank lung tumors = CMT167 flank lung tumors in C57Bl6 mice, sensitization to anti PD-1; assay type: in vivo, mouse; conditions: given 16 hours prior to sub-optimal anti-PD-1, days 10 and 13
Protocol: C57B16 mice bearing CMT167 flank lung tumors were treated as indicated on days 10 and 13 and relative volume followed.
There are reports in the literature indicating ways that hypoxia affects immune functions of lymphocytes, MDSCs and T regulatory cells infiltrating in the tumor.

LLC tumor = assay: Lewis Lung Carcinoma (LLC) PD-1 blockade resistant tumor model; assay type: in vivo, mouse; conditions: treated on days 5, 8
Protocol: LLC tumor bearing mice were treated as indicated on days 5, 8 and relative growth followed. P=NS for PD-1 vs PPV->PD1, 0.04 for PD-i vs SMV32->PD-1.
Finally, as a rigorous test of anti-hypoxia agents as immuno-sensitizers of model tumors grown in mice, we next tested the PD-1 blockade resistant tumor model Lewis Lung Carcinoma (LLC). These tumors have been reported to be refractory to even full dose (200 ug/mouse) PD-1 blocking antibody.

[2] = tested on: orthotopic MP2 pODD tumors; assay: in vivo bioluminescent imaging, orthotopic MP2 pODD tumors; design: species or system mouse; conditions: tail vein injection
Protocol: (§2) Orthotopic Panreatic Xenografts. MP2 PD AC cells (1×10^6) or the indicated derivates were implanted in immune-deficient athymic nu/nu mice following fACLIC approved protocols. Briefly, an incision was placed in the right flank of anesthetized animals the spleen and pancreas liberated. Cells were mixed 1:1 with Matfigel and implanted in the tail of the pancreas in 10 μl. Incision was sutured in 2 layers, animals given long lasting analgesics, and allowed to recover from anesthesia. Mice were returned to housing for post-op care and monitored daily for 4 days. Animals were checked weekly after that by palpation to determine tumor growth.
(§3) In vivo bioluminescent imaging. All animal experiments were performed according to protocols approved by the OSU institutional IAGLIC review (protocol #201200000124-R2), with daily veterinarian observation. For heterotopic flank tumor experiments, 1×10^6 HeLa pODD or 5×10^6 MP2 cells were injected subcutaneously (s.c.) into the flanks of 6-wk-old female (HeLa pODD) or male (N1P2 pODD or MP2 CMV) immunocompromised athymic nu/nu mice. […] Mice were anesthetized with 1.5% isoflurane and bioluminescence was measured every two minutes for the period of 25 minutes to identify peak response of each mouse to D-luciferin. Bioluminescent data were analyzed using living Image software (Perkin Elmer Inc) and calculated as photon flux/sec. […]

[3] = tested on: orthotopic MP2 CMV tumors; assay: in vivo bioluminescent imaging, orthotopic MP2 CMV tumors; design: species or system mouse; conditions: single dose of 2 mg/kg by tail vein, up to 6 hours post injection
Protocol: as §2, §3

HeLa pODD flank tumors = assay: in vivo bioluminescent imaging, HeLa pODD flank tumors; design: species or system mouse; conditions: 4 mg/kg by tail vein
Protocol: In vivo bioluminescent imaging. All animal experiments were performed according to protocols approved by the OSU institutional IAGLIC review (protocol #201200000124-R2), with daily veterinarian observation. For heterotopic flank tumor experiments, 1×10^6 HeLa pODD or 5×10^6 MP2 cells were injected subcutaneously (s.c.) into the flanks of 6-wk-old female (HeLa pODD) or male (N1P2 pODD or MP2 CMV) immunocompromised athymic nu/nu mice. Replicate experiments with groups of 4-6 mice were used for statistical reproducibility. Caliper measurements of opposing diameters were used to calculate the tumor volumes using the modified ellipsoidal formula: tumor volume=(length×width^2)[23]. Upon reaching 100 mm^3, the animals were given 100 mg/kg D-luciferin intraperitoneally and bioluminescence images were captured using IVIS In Vivo Imaging System Lumina II (Perkin Elmer Inc). Mice were anesthetized with 1.5% isoflurane and bioluminescence was measured every two minutes for the period of 25 minutes to identify peak response of each mouse to D-luciferin. Bioluminescent data were analyzed using living Image software (Perkin Elmer Inc) and calculated as photon flux/sec. Obtained individual photon flux peak values were then normalized to baseline for each mouse and averaged per group. […]

[4] = tested on: spontaneous canine soft tissue sarcoma; assay: BOLD MRI of spontaneous canine soft tissue sarcoma; assay type: in vivo, dog; conditions: for fraction of tumors responding well (T2* increase): one hour
Protocol: BOLD MRI analysis of canine tumors. Canine patients with primary sarcomas were enrolled in a trial to evaluate the effects of papaverine delivered at a dose of 1 or 2 mg/kg using ire blood oxygen level dependent (BOLD) magnetic resonance imaging (MRI). Dogs were anesthetized with isoflurane in medical air to effect on the bed of a Philips ingenia 3.071 UR scanner. They were first imaged with T1- (TR: 700ms, TE: 9ms, resolution 0.3×0.3×3 mm) and T2-weighted (TR: 3000 ms, TE: 80ms, resolution 0.4×0.4×3 mm) scans in transaxial, coronal, and sagittal orientations to acquire data covering the extent of the tumor. BOLD data were acquired as a series of 60 repeats of a volumetric echo-planar T2-weighted sequence (TR: 3000 ms, TE: 35 ms, resolution 1.6×1.6×4 mm) collected over a period of 3 minutes. In addition, a single slice fast field echo (FIFE) sequence (resolution 0.5×0.5×4 mm) was used to acquire 8 images at echo times from 5 to 75 ms, allowing fitting of pixel T2* values. After these acquisitions, papaverine was delivered intravenously and the BOLD and FEE data were acquired again one hour post-administration. All data were analyzed using the RT Image software package. BOLD data were registered using an affine transformation and percent signal change was calculated on a per-pixel basis: T2* values were fit on a pixel-by-pixel basis using a Levenberg-Marquardt least squares fit to a monoexponential decay function.

| SMILES | increase of pODD-Luc signal [1] [×] | luciferase signal response (MP2 CMV cells) | photon flux (MP2 pODD flank tumors; 4 mg intraperitoneally, 4 hours post injection) | PDE inhibition IC25 (PDE10A) [nM] | effect on PD-1 blockade (MC38 colorectal tumor; 2 mg/kg iv 16 hours prior to suboptimal anti PD-1 (100 μg ip every 3 days)) | tumor growth, compound alone (MC38 colorectal tumor; repeated dosing, no antibody) | tumor growth delay (CMT167 flank lung tumors) | therapeutic effect, compound first and PD-1 antibody second (LLC tumor) | photon flux (MP2 pODD flank tumors; intraperitoneal delivery of 2 mg/kg) | reduction in photon flux compared to vehicle [2] [%] | CMV luciferase activity vs vehicle [3] | photon flux reduction, dose comparison (HeLa pODD flank tumors) | fraction of tumors responding well (T2* increase) ([4]; 1 mg/kg IV) | fraction of tumors responding well (T2* increase) ([4]; 2 mg/kg IV) | tumor oxygenation ([4]; 1 or 2 mg/kg IV) |
| --- | --- | --- | --- | --- | --- | --- | --- | --- | --- | --- | --- | --- | --- | --- | --- |
| COC(=O)CNC(=O)C(=O)OC [DMOG, dimethyloxalyglycine] | 2.2 | unresponsive | significant increase of photon flux | – | – | – | – | – | – | – | – | – | – | – | – |
| COc1ccc(Cc2nccc3cc(OC)c(OC)cc23)cc1OC [PPV, papaverine] | – | – | – | 650 | enhance the effectiveness of suboptimal PD-1 blockade | no effect on tumor growth | significant tumor growth delay | no therapeutic benefit | did not reduce the photon flux | 45 | no difference | greater photon flux reduction than the 2 mg/kg dose | 1/4 | 3/5 | increases oxygenation |
